In patent US10555987B2, “GHRH agonists for the treatment of ischemic disorders” (UNIVERSITY OF MIAMI, priority 2012, dated 2020):
Marks after values point to notes of the source that are not given here. Non-standard residues stand in square brackets, D forms with d. Residues, ends and D or L forms follow the SMILES beside them. *: point of attachment. Desaminotyrosyl = O=C(CCc1ccc(O)cc1)*; NMeY = CN[C@@H](Cc1ccc(O)cc1)C(=O)O; Nle = CCCC[C@H](N)C(=O)O; Orn = NCCC[C@H](N)C(=O)O; Abu = CC[C@H](N)C(=O)O; Aoc = NCCCCCCCC(=O)O

Key:
GHRH receptor [1] = molecular target: T1, GHRH receptor (Homo sapiens, UniProt Q02643); assay: GHRH receptor binding, competition with 125I-labeled JV-1-42, human pituitary membrane homogenates (Table 7); design: Normal human pituitaries were purchased from the National Hormone and Peptide Program; tissue National Hormone and Peptide Program (A.F. Parlow, Harbor-UCLA Medical Center, Torrance, Calif.); host or cells: normal human pituitary, membrane fraction; conditions: JI-38 = 1, Table 7
T1 sequence (Q02643 23-423): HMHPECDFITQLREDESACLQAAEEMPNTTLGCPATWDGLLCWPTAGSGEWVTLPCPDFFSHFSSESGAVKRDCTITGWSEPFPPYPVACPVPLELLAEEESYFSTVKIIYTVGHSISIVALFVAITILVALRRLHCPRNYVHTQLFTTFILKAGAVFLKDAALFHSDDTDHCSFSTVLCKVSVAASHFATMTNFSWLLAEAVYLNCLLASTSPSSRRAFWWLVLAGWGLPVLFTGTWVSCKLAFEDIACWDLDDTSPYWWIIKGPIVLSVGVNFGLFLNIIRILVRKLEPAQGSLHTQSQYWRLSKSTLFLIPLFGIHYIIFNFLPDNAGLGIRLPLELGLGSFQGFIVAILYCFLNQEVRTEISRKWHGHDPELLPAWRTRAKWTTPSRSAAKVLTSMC
Source text: Normal human pituitaries were purchased from the National Hormone and Peptide Program (A.F. Parlow, Los Angeles, County Harbor-UCLA Medical Center, Torrance, Calif.).

GH release [2] = assay: In vivo endocrine activity, GH release after intravenous administration (Table 8); conditions: rat, i.v. injection
Method: In vivo tests on endocrine activity of new GHRH agonists (Intravenous administration). For in vivo tests based on intravenous administration, adult male Sprague-Dawley rats were anesthetized with pentobarbital (6 mg/100/g, b.w.), and GHRH agonists were injected 20 minutes after the injection of pentobarbital. Blood samples were taken from the jugular vein (pretreated level), immediately after hGHRH(1-29)NH2 injection (as a control) or after hGHRH analogs injection. Blood samples were taken from the jugular vein 5, 15 and 30 minutes after the injection. The blood samples were centrifuged, plasma was removed and the GH level was measured by ELISA.

GHRH receptor [3] = molecular target: T1, GHRH receptor; assay: Receptor binding in vitro, 125I-labeled [His1,Nle27]-hGHRH(1-32)NH2, membrane receptors of human anterior pituitary cells (Table 14)
GH release [4] = assay: In vivo endocrine activity, GH release after subcutaneous administration (Table 9); conditions: rat, subcutaneous (s.c.) injection
Method: Subcutaneous Administration. Adult male rats were used and anesthetized with pentobarbital (6 mg/100 g, b.w.), by i.p. injection. […] Blood samples were taken from the jugular vein 5, 15 and/or 30 minutes after the injection. The blood samples were centrifuged, plasma was removed and the GH level was measured byELISA. The results are summarized in terms of potency in Table 9.

GH release [5] = assay: GH releasing potency in vivo, subcutaneous administration (Example 14, Table 12); design: species or system rat; conditions: s.c.
Outline: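 Potency is expressed relative to GHRH(1-29)NH2 and JI-38 (each = 1), via equivalent GHRH(1-29)NH2 dose read from a standard curve. Peptides in 5% mannitol given i.v. or s.c. to anaesthetised male Sprague-Dawley rats (200-250 g); serum GH measured by ELISA at selected times.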

Row | Relative affinity (Binding potency) vs JI-38 (GHRH receptor [1]) | Relative affinity (Binding potency) compared to JI-38 (GHRH receptor [3]; JI-38 = 1) | Relative affinity (Binding potency) compared to hGHRH(1-29) (GHRH receptor [3]; hGHRH(1-29)NH2 = 1) | Compound | GH releasing potency in vivo relative to JI-38 (=1) (GH release [2]; 5 min after) | GH releasing potency in vivo relative to JI-38 (=1) (GH release [2]; 15 min after) | GH releasing potency in vivo relative to JI-38 (=1) (GH release [2]; 30 min after) | GH releasing potency relative to JI-38 (=1) (GH release [4]; 15 min after) | GH releasing potency relative to JI-38 (=1) (GH release [4]; 30 min after) | Serum GH level at selected time after injection (ng/ml), 0 min (GH release [5]; male rats, dose 3 μg/kg, 0 min, mean ± SEM) | Serum GH level at selected time after injection (ng/ml), 15 min (GH release [5]; male rats, dose 3 μg/kg, 15 min, mean ± SEM) | Serum GH level at selected time after injection (ng/ml), 30 min (GH release [5]; male rats, dose 3 μg/kg, 30 min, mean ± SEM) | GH-releasing potency after s.c. administration (in words) (GH release [5]) | Relative potency compared to GHRH(1-29), 15 min (GH release [5]; 15 min) | Relative potency compared to JI-38, 15 min (GH release [5]; 15 min) | Relative potency compared to GHRH(1-29), 30 min (GH release [5]; 30 min)
1 | 1.20 | – | – | CCCC[C@H](NC(=O)[C@@H](NC(=O)[C@H](CC(=O)O)NC(=O)[C@H](CCC(N)=O)NC(=O)[C@H](CC(C)C)NC(=O)[C@H](CC(C)C)NC(=O)[C@H](CCCN)NC(=O)[C@H](CCCNC(=N)N)NC(=O)[C@H](C)NC(=O)[C@H](CO)NC(=O)[C@H](CC(C)C)NC(=O)[C@H](CCC(N)=O)NC(=O)[C@H](CC)NC(=O)[C@H](CC(C)C)NC(=O)[C@@H](NC(=O)[C@H](CCCN)NC(=O)[C@H](CCCNC(=N)N)NC(=O)[C@H](Cc1ccc(O)cc1)NC(=O)[C@H](CO)NC(=O)[C@H](CC(N)=O)NC(=O)[C@@H](NC(=O)[C@H](Cc1ccccc1)NC(=O)[C@@H](NC(=O)[C@H](C)NC(=O)[C@H](CC(=O)O)NC(=O)[C@@H](C)NC(=O)CCc1ccc(O)cc1)[C@@H](C)CC)[C@@H](C)O)C(C)C)[C@@H](C)CC)C(=O)N[C@@H](CC(=O)O)C(=O)N[C@@H](CCCNC(=N)N)C(=O)NCCCCCCCC(N)=O [Peptide P-21300, [Dat^1, D-Ala^2, Orn^12, Abu^15, Orn^21, Nle^27, Asp^28, Amc^30]hGHRH(1-30)NH2] (Desaminotyrosyl-[dA]DAIFTNSYR[Orn]VL[Abu]QLSAR[Orn]LLQDI[Nle]DR[Aoc]-NH2) | 0.39 | 0.51 | 0.81 | – | – | – | – | – | – | – | – | –
2 | 14.5 | 2.95 | 8.22 | CCCC[C@H](NC(=O)[C@@H](NC(=O)[C@H](CC(=O)O)NC(=O)[C@H](CCC(N)=O)NC(=O)[C@H](CC(C)C)NC(=O)[C@H](CC(C)C)NC(=O)[C@H](CCCN)NC(=O)[C@H](CCCNC(=N)N)NC(=O)[C@H](C)NC(=O)[C@H](CO)NC(=O)[C@H](CC(C)C)NC(=O)[C@H](CCC(N)=O)NC(=O)[C@H](CC)NC(=O)[C@H](CC(C)C)NC(=O)[C@@H](NC(=O)[C@H](CCCN)NC(=O)[C@H](CCCNC(=N)N)NC(=O)[C@H](Cc1ccc(O)cc1)NC(=O)[C@H](CO)NC(=O)[C@H](CCC(N)=O)NC(=O)[C@@H](NC(=O)[C@H](Cc1ccccc1)NC(=O)[C@@H](NC(=O)[C@H](C)NC(=O)[C@H](CC(=O)O)NC(=O)[C@H](C)NC(=O)[C@H](Cc1ccc(O)cc1)NC)[C@@H](C)CC)[C@@H](C)O)C(C)C)[C@@H](C)CC)C(=O)N[C@@H](CC(=O)O)C(=O)N[C@@H](CCCNC(=N)N)C(=O)NC [Peptide P-27406, [N—Me-Tyr^1, Gln^8, Orn^12, Abu^15, Orn^21, Nle^27, Asp^28]hGHRH(1-29) NH—CH3] (H-[NMeY]ADAIFTQSYR[Orn]VL[Abu]QLSAR[Orn]LLQDI[Nle]DR-NHMe) | – | – | – | 0.47 | 0.50 | 21.3 ± 4.8 ng/mL | 492.6 ± 21.8 ng/mL | 282 ± 17.8 ng/mL | significantly higher potencies at 30 minutes than at 15 minutes | 170 | 2.69* | 449.7
3 | – | – | – | [N—Me-Tyr^1, D-Ala^2, Gln^8, Orn^12, Abu^15, Orn^21, Nle^27, Asp^28, Apa^30]hGHRH(1-30)NH—CH2—CH3 [Peptide P-28475] | 0.19 | 0.36 | 0.92 | – | – | – | – | – | – | – | – | –
4 | – | – | – | [N—Me-Tyr^1, D-Ala^2, Gln^8, Orn^12, Abu^15, Orn^21, Nle^27, Asp^28, Har^30]hGHRH(1-30)NH—CH3 [Peptide P-27450] | 0.07 | 0.11 | 0.49 | – | – | – | – | – | – | – | – | –
